Where two headings read alike, the source gives them in different places.
Assays:
[1] = set-up: method as in Suwanpidokkul et al.; details: porcine skin, infinite dose, ref Suwanpidokkul et al., cited from earlier work
[2] = set-up: method as in PMID 3958901; details: PEG 400/water mixtures; cadaver skin; infinite dose; cited from earlier work
[3] = set-up: method as in PMID 30529662; details: label = neat solvent of the NIA solution; porcine skin; cited from earlier work
[4] = set-up: method as in PMID 30529662; details: label = solvent; cited from earlier work
[5] = Dynamic Vapor Sorption (DVS) study of NIA solutions; format: physicochemical; details: label = vehicle of a 5% (w/v) NIA solution; 5 μL; 32 ± 1 °C, 50 ± 2% RH; n = 3
Protocol: Nitrogen was used as the carrier gas (200 mL/min). To monitor mass differences, 15 mm quartz glass pans connected to a microbalance accurate to 0.00001 mg were employed. Then, 5 μL solutions of 5% NIA (w/v) were added to the pans, and data were recorded using a Universal Analysis 2000 (TA Instrument, New Castle, DE, USA). Temperature and relative humidity (RH) were maintained over the course of the studies at 32 ± 1 °C and 50 ± 2% RH, respectively.

[6] = set-up: method as in PMID 30529662; details: label = neat solvent of the NIA solution; finite dose; porcine skin; cited from earlier work

Row | SMILES | Flux trend with increasing PEG 400 concentration in the formulation [2] | Skin retention of NIA [3] [%] | Percentage of applied weight recovered at 24 h (DVS) [5] [%] | Cumulative permeation of NIA at 24 h [6] [μg/cm^2] | further results
1 | Cc1cn([C@H]2C[C@H](N=[N+]=[N-])[C@@H](CO)O2)c(=O)[nH]c1=O [zidovudine] | – | – | – | – | Flux ([1]; PEG 400/water vehicle): 15.52 ± 0.60 μg/cm^2/h; Flux ([1]; ethanol/water vehicle): 9.96 ± 0.63 μg/cm^2/h; Flux ([1]; isopropanol/water vehicle): 10.35 ± 0.67 μg/cm^2/h
2 | N=C(N)N/N=C/c1c(Cl)cccc1Cl [guanabenz] | drop linearly | – | – | – | –
3 | CCOCCOCCO [TC, Transcutol® P] | – | 16.4 ± 5.8 | 17.6 ± 0.5 | 95.1 | Solubility of NIA [4]: 8.0 ± 0.6%
4 | CO[C@H]1CO[C@H]2[C@@H]1OC[C@H]2OC [DMI, dimethyl isosorbide] | – | 16.7 ± 6.3 | 76.3 ± 0.1 | 103.6 | –
5 | O=C(O)CCc1nc(-c2ccccc2)c(-c2ccccc2)o1 [oxaprozin] | drop linearly | – | – | – | –
6 | CC(O)CO (centres unmarked) [PG, propylene glycol] | – | – | 44.6 ± 0.02 | 46.0 | –

From publication PMC7761779 (Polymers, 2020)
